This is an account of results in patent publication US5728580A, “Methods and culture media for inducing single cell suspension in insect cell lines” (Cornell Research Foundation, Inc., priority 1996, dated 1998).

Series [1] has as its system AcMNPV binding to TN5B1-4 cells. The series is described as follows: Binding of [3H]thymidine-labeled AcMNPV budded virus to TN5B1-4 cells. The format is cell-based. The following applies: for Virus Binding: 30 min; for Binding, A. Binding in Presence of Polyanions: 5 × 10^6 cells/ml for 30 min, control is binding in absence of polyanion; for Binding, C. Pretreatment of Cells: cells pretreated 3 h, washed once, control is untreated cells; for Binding, C. Pretreatment of Cells / Binding, B. Pretreatment of Virus: binding 1 h without polymer; for Binding, B. Pretreatment of Virus: virus pretreated 2 h, pelleted, control is untreated virus.

Series [2] relates to TN5B1-4 cells. Put plainly: Inducing single-cell formation of clumped TN5B1-4 cells in suspension culture. The format is cell-based, Trichoplusia ni. The note with it: for Inducing single-cell formation / dispersing clumped cells (in words): clumped suspension culture; for Inducing single-cell formation / dispersing clumped cells (in words) / Concentration adequate to maintain single-cell suspension: serum-free medium.

Series [3] deals with AcMNPV infection of TN5B1-4 cells. The note with it: cited from earlier work.
Series [4] shares this test system. Put plainly: Viral infection inhibition in TN5B1-4 (cell growth post-infection). The following applies: at concentrations required to induce and maintain single-cell suspension; MOI 0.1 to 20. The format is cell-based. On the procedure: (§1) The inhibition of binding was further explored by considering the effect of increasing polyanion concentration on the binding of virus to TN5B1-4 and SF21. Less than 20 μg/ml of both dextran sulfate and heparin were required to attain maximum inhibition. […] Dextran sulfate reduced the binding of the virus to TN5B1-4 but not to SF21. […] The cell growth post-infection was used as a measure of virus infection since infection is known to inhibit cell division. Hereafter, synchronous infection is used to refer to infection with no measurable cell division post-infection.
The cells were infected at MOI of 0.1, 0.5, 1, 5, 10, and 20 to determine the lowest MOI for synchoronous infection.

Series [5] relates to TN5B1-4 cells. The note with it: for Toxic above this level: tn5b1-4 cells. On the procedure: Three different molecular weights of dextran sulfate, derived from dextran of MW 5000, 20000, 500000, were evaluated.
Compounds were evaluated for their ability to induce single cell suspension in 50-ml spinner flasks at 160 rpm. Control cells were passaged at least 10 times in suspension before they were used in any experiments. […] A qualitative score for reduction in clumping relative to control cells was assigned to cells grown in the presence of test compound at the end of the third passage. The protocol for enzyme treatment was the same, but the seeding density was 1×10^6 cells/ml and cells were evaluated after 24 h.

The test system of series [6] is TN5B1-4 cells. Put plainly: Growth kinetics of TN5B1-4 cells in spinner flasks. The format is cell-based, Trichoplusia ni. Also noted: dose or concentration left out as unconfirmed. On the procedure: TN5B1-4 suspension cells were grown in 50-ml spinner flasks (Bellco Glass, Vineland, N.J.) with a working volume of 40 ml at 160 rpm. SF21 cells were grown in similar vessels at 130 rpm in Ex-Cell 400 medium. The screw caps of the flasks were replaced with silicone foam closures for better oxygen transfer. Cells were passaged every 3 days.
The growth of TN5B1-4 DS 5000 cells in suspension was scaled-up to a 1.25 L Celligen reactor agitated with a marine impeller at 90 rpm. The cells were subcultured three times in this reactor with no clump formation. The doubling time was 20 h and a maximum density of 6-7×10^6 cells/ml was reached.

Series [7] deals with AcMNPV binding to SF21 cells. Put plainly: Binding of AcMNPV virus to SF21 cells. The format is cell-based. On the procedure: as §1
Series [8] relates to AcMNPV infection of SF21 cells. Put plainly: Viral infection inhibition in SF21. The format is cell-based. Here is the method:
as §1

Where [9] appears, read: 100 μg/ml, control = binding of virus to cells with no additive.
Where [10] appears, read: 1000 μg/ml, control = binding of virus to cells with no additive.
The mark [11] stands for this setting: 25 μg/ml, control = binding of virus to cells with no additive.

Consider “chondroitin disaccharides [Chondroitin sulfate disaccharides]”, for which, in series [1] (setting [9]), the “Virus Binding” value is reported as 99 ± 6 % of Control. Also, the “Inducing single-cell formation / dispersing clumped cells (in words)” value in the series with TN5B1-4 cells [2] is given as “did not disperse clumped cells”.
fructose 6-phosphate: in the series with TN5B1-4 cells [2], the “Inducing single-cell formation / dispersing clumped cells (in words)” value is on record as “ineffective”.
Regarding chondroitin sulfate, the “Virus Binding” value in series [1] (setting [9]) is reported as 94 ± 3 % of Control.
Heparin: the “Inhibition of viral infection (as known)” value in series [3] is given as “known to seriously inhibit infection”. The “Concentration required to attain maximum inhibition of virus binding (threshold value)” value in series [1] is recorded as “Less than 20 μg/ml”. Also, the “Virus Binding” value in series [1] (setting [9]) is 63 ± 3 % of Control. In addition, the “Fold higher concentration required to induce single-cell suspension relative to dextran sulfate” value with TN5B1-4 cells [2] is 20 fold.
For the substance polyphosphate, in the series on TN5B1-4 cells [2], the “Inducing single-cell formation / dispersing clumped cells (in words)” value is “did not induce single-cell formation”.
For the substance hyaluronate, the “Virus Binding” value in series [1] (setting [9]) is 99 ± 1 % of Control. For the same substance, in the series on TN5B1-4 cells [2], the “Inducing single-cell formation / dispersing clumped cells (in words)” value is “did not induce single-cell formation”.
Consider glucose 6-phosphate, for which the “Inducing single-cell formation / dispersing clumped cells (in words)” value in the series with TN5B1-4 cells [2] is “ineffective”.
For “sodium carboxymethylcellulose [sodium CMC]”, the “Virus Binding” value in series [1] (setting [10]) is 107 ± 1 % of Control. Further, the “Inducing single-cell formation / dispersing clumped cells (in words)” value with TN5B1-4 cells [2] was “did not induce single-cell formation”.
heparin disaccharides: in series [1] (setting [9]), the “Virus Binding” value was 103 ± 2 % of Control.
Turning to dextran sulfate [dextran sulfate II], in series [1] (setting [11]), the “Virus Binding” value is 82 ± 4 % of Control.
Regarding polyvinyl sulfate, the “Inhibition of viral infection” value in series [4] is listed as “inhibited viral infection even at high MOI”. Further, the “Virus Binding” value in series [1] (10 μg/ml, control = binding of virus to cells with no additive) is on record as 52 ± 4 % of Control. In addition, in series [1] (25 μg/ml), the “Binding, A. Binding in Presence of Polyanions” value (from here on “Binding, A. Binding in Presence”) is reported as 52 ± 4 % of control; the “Binding, C. Pretreatment of Cells” value is given as 95 ± 6 % of control; the “Binding, B. Pretreatment of Virus” value is 96 ± 5 % of control. Besides, in series [1] (setting [11]), the “Virus Binding” value was 52 ± 1 % of Control. Further, in the series on TN5B1-4 cells [2], the “Inducing single-cell formation / dispersing clumped cells (in words)” value was “as effective as dextran sulfate” and the “Concentration adequate to maintain single-cell suspension” value (“Concentration adequate” below) worked out at 25 µg/mL.
Take sodium polyphosphoric acid: the “Virus Binding” value in series [1] (setting [9]) is 98 ± 1 % of Control. Further, the “Inducing single-cell formation / dispersing clumped cells (in words)” value in the series on TN5B1-4 cells [2] is “did not induce single-cell formation”.
As for κ-carrageenan, the “Virus Binding” value in series [1] (setting [9]) is on record as 73 ± 6 % of Control.
For dextran, the “Virus Binding” value in series [1] (setting [9]) is 97 ± 2 % of Control; in series [1] (100 μg/ml, polymer of MW 580 kd, control = no additive) it was 99 ± 3 % of Control. In the series with TN5B1-4 cells [2], the “Inducing single-cell formation / dispersing clumped cells (in words)” value was “ineffective”.
pentosan sulfate: the “Inhibition of viral infection” value in series [4] is listed as “not severely inhibited”. In addition, in series [1] (setting [11]), the “Virus Binding” value is reported as 53 ± 3 % of Control. In addition, in series [1] (100 μg/ml), the “Binding, A. Binding in Presence” value is reported as 55 ± 9 % of control; the “Binding, C. Pretreatment of Cells” value is on record as 96 ± 7 % of control; the “Binding, B. Pretreatment of Virus” value is recorded as 99 ± 4 % of control. Moreover, the “Virus Binding” value in series [1] (setting [9]) is given as 55 ± 9 % of Control. The “Concentration adequate” value with TN5B1-4 cells [2] was 100 µg/mL.
fucoidan sulfate: the “Virus Binding” value in series [1] (setting [11]) and in series [1] (setting [9]) was 53 ± 1 % of Control each time.
Consider dermatan sulfate, for which, in series [1] (setting [9]), the “Virus Binding” value is given as 65 ± 7 % of Control.
For dextran sulfate [dextran sulfate I], the “Inhibition of viral infection” value in series [4] is “not severely inhibited”. For the same substance, in the series on TN5B1-4 cells [5], the “Toxic at concentrations greater than” value is listed as “greater than 0.1%”. Also, in series [1], the “Concentration required to attain maximum inhibition of virus binding (threshold value)” value is recorded as “Less than 20 μg/ml”. In series [1] (25 μg/ml), the “Binding, A. Binding in Presence” value is on record as 42 ± 2 % of control; the “Binding, C. Pretreatment of Cells” value was 93 ± 9 % of control; the “Binding, B. Pretreatment of Virus” value is reported as 103 ± 3 % of control. In series [1] (setting [11]), the “Virus Binding” value is 42 ± 2 % of Control. Moreover, in series [1] (at concentration required to maintain single-cell suspension), the “Reduction of the attachment rate constant” value is recorded as “six-fold”. Besides, the “Effect on doubling time and maximum cell density” value in the series on TN5B1-4 cells [6] is reported as “does not affect”. Also, in the series with TN5B1-4 cells [2] (serum-containing media, up to 300 μg/ml), the “Inducing single-cell formation in serum-containing media” value is on record as “complete elimination of clumping was not possible”. In addition, the “Concentration adequate” value with TN5B1-4 cells [2] was 25 µg/mL. For the same substance, the “Effect on binding of virus to SF21” value in series [7] was “did not affect binding”. For the same substance, in series [8], the “Inhibition of viral infection in SF21” value is “inhibited infection”.
For λ-carrageenan, the “Toxic above this level” value in the series with TN5B1-4 cells [5] is more than 25 µg/mL. For the same substance, in series [1] (setting [11]), the “Virus Binding” value was 68 ± 3 % of Control.
DEAE-dextran [DEAE dextran]: in series [1] (5 μg/ml, control = binding of virus to cells with no additive), the “Virus Binding” value is recorded as 74 ± 9 % of Control. Further, the “Inducing single-cell formation / dispersing clumped cells (in words)” value in the series on TN5B1-4 cells [2] is recorded as “ineffective”.
Regarding Pluronic F68, the “Virus Binding” value in series [1] (setting [10]) is 98 ± 2 % of Control. Moreover, the “Inducing single-cell formation / dispersing clumped cells (in words)” value with TN5B1-4 cells [2] is on record as “ineffective”.
Regarding “dextran sulfate [dextran sulfate 500000]”, in the series with TN5B1-4 cells [5], the “Toxic above this level” value is listed as “above 5 μg/ml”.
With protamine sulfate, in series [1] (50 μg/ml, control = binding of virus to cells with no additive), the “Virus Binding” value is “virus ppt”. The “Inducing single-cell formation / dispersing clumped cells (in words)” value in the series on TN5B1-4 cells [2] was “ineffective”.
